Measured values: PubChem BioAssay (NCI)
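Step 1: Grow cells in 96-well plates. Step 2: Expose to compound for 48 hours at 5 concentrations. Step 3: Interpolate endpoints linearly; if unreached, use highest concentration. Here, GI50 denotes the concentration required for 50% inhibition of growth. The concentration for full growth arrest is given as TGI.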

Columns and labels:
Experiment in all cases: NCI anticancer screen, dose series, 48 h
[1] = tested on: UO-31 renal
[2] = tested on: NCI-H460 lung
[3] = tested on: SK-MEL-5 melanoma
[4] = tested on: T-47D breast
[5] = tested on: OVCAR-8 ovarian
[6] = tested on: HT29 colon
[7] = tested on: HCT-116 colon
[8] = tested on: SK-MEL-2 melanoma
[9] = tested on: PC-3 prostate
[10] = tested on: BT-549 breast
[11] = tested on: A549 NSCLC
[12] = tested on: NCI-H226 lung
[13] = tested on: NCI-H522 lung
[14] = tested on: OVCAR-3 ovarian
[15] = tested on: SNB-19 CNS
[16] = tested on: OVCAR-4 ovarian
[17] = tested on: MDA-MB-231 breast
[18] = tested on: UACC-257 melanoma
[19] = tested on: HL-60(TB) leukemia
[20] = tested on: SK-OV-3 ovarian
[21] = tested on: MDA-MB-435
[22] = tested on: HS 578T breast
[23] = tested on: SF-268 CNS
[24] = tested on: 786-0 renal
[25] = tested on: NCI/ADR-RES ovarian
[26] = tested on: MCF7 breast
[27] = tested on: SR leukemia
[28] = tested on: TK-10 renal
[29] = tested on: MALME-3M melanoma
[30] = tested on: OVCAR-5 ovarian
[31] = tested on: ACHN renal
[32] = tested on: HCT-15 colon
[33] = tested on: LOX IMVI melanoma
[34] = tested on: SN12C renal
[35] = tested on: SK-MEL-28 melanoma
[36] = tested on: HOP-62 NSCLC
[37] = tested on: K-562 leukemia
[38] = tested on: RPMI-8226 leukemia
[39] = tested on: HCC-2998 colon
[40] = tested on: HOP-92 NSCLC
[41] = tested on: CCRF-CEM leukemia
[42] = tested on: A498 renal
[43] = tested on: IGROV1 ovarian
[44] = tested on: NCI-H23 lung
[45] = tested on: SF-295 CNS
[46] = tested on: RXF 393 renal
[47] = tested on: SW-620 colon
[48] = tested on: U251 CNS
[49] = tested on: SNB-75 CNS
[50] = tested on: SF-539 CNS
[51] = tested on: KM12 colon
[52] = tested on: CAKI-1 renal
[53] = tested on: M14 melanoma
[54] = tested on: DU-145 prostate
[55] = tested on: COLO 205 colon
[56] = tested on: UACC-62 melanoma
[57] = tested on: MOLT-4 leukemia

O=C1/C(=C\c2ccc(Br)cc2)CN(C(=O)c2ccccc2F)C/C1=C\c1ccc(Br)cc1
GI50 [1]: 1530 nM
TGI [1]: 3160 nM
GI50 [2]: 3100 nM
TGI [2]: 11600 nM
GI50 [3]: 1930 nM
TGI [3]: 4040 nM
GI50 [4]: 3470 nM
TGI [4]: 24100 nM
GI50 [5]: 2840 nM
TGI [5]: 15700 nM
GI50 [6]: 610 nM
TGI [6]: 2170 nM
GI50 [7]: 202 nM
TGI [7]: 417 nM
GI50 [8]: 4770 nM
TGI [8]: 17500 nM
GI50 [9]: 1730 nM
TGI [9]: 4210 nM
GI50 [10]: 1820 nM
TGI [10]: 3560 nM
GI50 [11]: 2210 nM
TGI [11]: 6160 nM
GI50 [12]: 5070 nM
TGI [12]: 13600 nM
GI50 [13]: 2150 nM
TGI [13]: 4940 nM
GI50 [14]: 1910 nM
TGI [14]: 3520 nM
GI50 [15]: 2060 nM
TGI [15]: 6650 nM
GI50 [16]: 1960 nM
TGI [16]: 5010 nM
GI50 [17]: 2730 nM
TGI [17]: 7890 nM
GI50 [18]: 2350 nM
TGI [18]: 6590 nM
GI50 [19]: 1740 nM
TGI [19]: 5290 nM
GI50 [20]: 2430 nM
TGI [20]: 5710 nM
GI50 [21]: 1100 nM
TGI [21]: 3330 nM
GI50 [22]: 2150 nM
TGI [22]: 6760 nM
GI50 [23]: 2810 nM
TGI [23]: 8830 nM
GI50 [24]: 1690 nM
TGI [24]: 3130 nM
GI50 [25]: 2900 nM
TGI [25]: 17700 nM
GI50 [26]: 308 nM
TGI [26]: 1380 nM
GI50 [27]: 339 nM
TGI [27]: 3200 nM
GI50 [28]: 2840 nM
TGI [28]: 7460 nM
GI50 [29]: 2610 nM
TGI [29]: 7910 nM
GI50 [30]: 2450 nM
TGI [30]: 7060 nM
GI50 [31]: 1950 nM
TGI [31]: 3930 nM
GI50 [32]: 1910 nM
TGI [32]: 6650 nM
GI50 [33]: 334 nM
TGI [33]: 1010 nM
GI50 [34]: 1980 nM
TGI [34]: 4920 nM
GI50 [35]: 2290 nM
TGI [35]: 5650 nM
GI50 [36]: 1830 nM
TGI [36]: 3820 nM
GI50 [37]: 1120 nM
TGI [37]: > 25100 nM
GI50 [38]: 119 nM
TGI [38]: 903 nM
GI50 [39]: 1650 nM
TGI [39]: 3160 nM
GI50 [40]: 2210 nM
TGI [40]: 6760 nM
GI50 [41]: 854 nM
TGI [41]: > 26500 nM
GI50 [42]: 2870 nM
TGI [42]: 10400 nM
GI50 [43]: 2290 nM
TGI [43]: 4890 nM
GI50 [44]: 2490 nM
TGI [44]: 6390 nM
GI50 [45]: 2180 nM
TGI [45]: 5640 nM
GI50 [46]: 1600 nM
TGI [46]: 3080 nM
GI50 [47]: 913 nM
TGI [47]: 2950 nM
GI50 [48]: 1330 nM
TGI [48]: 2690 nM
GI50 [49]: 2030 nM
TGI [49]: 7440 nM
GI50 [50]: 1750 nM
TGI [50]: 3220 nM
GI50 [51]: 646 nM
TGI [51]: 2060 nM
GI50 [52]: 3050 nM
TGI [52]: 20000 nM
GI50 [53]: 1790 nM
TGI [53]: 3780 nM
GI50 [54]: 3790 nM
TGI [54]: 16800 nM
GI50 [55]: 1910 nM
TGI [55]: 3820 nM
GI50 [56]: 1760 nM
TGI [56]: 4030 nM
GI50 [57]: 2830 nM
TGI [57]: > 29500 nM
